Data on 86 compounds can be found in PubChem BioAssay AID651677 (The Scripps Research Institute Molecular Screening Center, 2012).

Values joined by “and” are separate entries in the source; they are usually repeats but may differ in a detail not shown here. Equal values may be shown once. Active and inactive are the calls of the source. How the calls were made is not given here. Bounds are passed on as bounds.

A word on the IC50: it is the concentration needed to halve the response being measured.

In the assay the target is Perilipin-5 (Homo sapiens) + 1-acylglycerol-3-phosphate O-acyltransferase ABHD5 (Homo sapiens) (UniProt Q00G26+Q8WTS1). The assay can be described thus: ABHD5-PLIN5 interaction inhibitors, dose response, biochemical, luminescence (AID 651677).
Sequence of Perilipin-5 (Homo sapiens) + 1-acylglycerol-3-phosphate O-acyltransferase ABHD5 (Homo sapiens) (Q00G26 whole entry, looked up): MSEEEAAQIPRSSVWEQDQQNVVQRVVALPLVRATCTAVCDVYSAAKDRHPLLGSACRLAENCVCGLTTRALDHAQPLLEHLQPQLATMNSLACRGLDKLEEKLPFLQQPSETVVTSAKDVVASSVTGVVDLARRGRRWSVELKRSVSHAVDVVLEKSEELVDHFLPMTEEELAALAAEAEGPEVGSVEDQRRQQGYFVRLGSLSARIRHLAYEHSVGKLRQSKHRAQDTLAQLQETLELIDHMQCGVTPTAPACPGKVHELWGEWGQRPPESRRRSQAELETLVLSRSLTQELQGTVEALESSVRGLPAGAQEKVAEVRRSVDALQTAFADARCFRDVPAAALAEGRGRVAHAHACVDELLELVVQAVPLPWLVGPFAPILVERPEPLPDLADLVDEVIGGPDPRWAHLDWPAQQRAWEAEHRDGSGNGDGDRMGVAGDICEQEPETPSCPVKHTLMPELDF
Sequence of Perilipin-5 (Homo sapiens) + 1-acylglycerol-3-phosphate O-acyltransferase ABHD5 (Homo sapiens) (Q8WTS1 whole entry, looked up): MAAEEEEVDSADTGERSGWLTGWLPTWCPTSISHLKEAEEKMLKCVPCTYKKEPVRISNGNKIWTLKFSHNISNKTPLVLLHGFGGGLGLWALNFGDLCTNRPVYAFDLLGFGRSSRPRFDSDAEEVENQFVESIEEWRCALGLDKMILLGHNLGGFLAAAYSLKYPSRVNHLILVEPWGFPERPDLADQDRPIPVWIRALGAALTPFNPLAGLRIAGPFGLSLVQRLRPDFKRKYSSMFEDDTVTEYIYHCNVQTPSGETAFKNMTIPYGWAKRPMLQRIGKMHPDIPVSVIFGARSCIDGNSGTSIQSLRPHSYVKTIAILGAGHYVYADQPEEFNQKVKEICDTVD
Regarding `Cc1ccc(S(=O)(=O)N2C[C@H]3n4c(=O)ccc(=O)n4C[C@H](OC(=O)Nc4cccs4)[C@@]3(O)C2)cc1`, the IC50 was 7930 nM.
With `CC1CCN(S(=O)(=O)c2ccc(NC(=O)Cc3cccs3)cc2)CC1`, the IC50 entry was “inactive”.
Then `CCN(CC)CCNC(=O)c1ccc(NC(=O)c2cn(-c3ccccc3)nc2-c2cccs2)cc1`, with “inactive”.
On to `COc1ccccc1/C=C/C(=O)c1ccccc1`, for which the IC50 is 6630 nM.
Regarding `COc1ccccc1C=CC(=O)C=Cc1ccccc1OC`, the IC50 is 4790 nM.
Then `C=CC(=O)N1c2ccccc2Sc2ccc(NC(=O)OCC)cc21`, with 6060 nM; and `N#Cc1ccc(C(C(=O)Nc2ccc3c(c2)OCCO3)n2c(=O)c(-c3ccco3)nc3ccccc32)cc1` (stereo unspecified), with 7270 nM.
Then `CCCNC(=O)Nc1ccc2c(c1)N(C)C(=O)c1ccccc1S2`, with 8610 nM.
As for `CC1=CC(C)(C)Nc2ccc(OC(=O)CN3C(=O)C4CCCCC4C3=O)cc21` (stereo unspecified), the figure is 2500 nM.
As to `N#Cc1ccc(C(C(=O)NC2CCCCC2)n2c(=O)c(-c3ccco3)nc3ccccc32)cc1` (stereo unspecified), the IC50 is 1880 nM.
For `O=C1NC(=O)N(Cc2ccc(F)cc2)C(=O)/C1=C\C=C\c1ccco1`, the IC50 is 1360 nM.
Then `CC1=CC(C)(C)Nc2ccc(OC(=O)CN3C(=O)c4cccc5cccc(c45)C3=O)cc21`, with 6890 nM; and `NC(=NCCCCCCN=C(N)/N=C(\N)Nc1ccc(Cl)cc1)/N=C(\N)Nc1ccc(Cl)cc1`, with 3820 nM and 1660 nM; and `COc1cc(C(C)=O)ccc1OCc1cn(CC(=O)c2ccc(O)cc2)nn1`, with 4430 nM.
As for `O=C(NCc1ccccc1)C(c1cc2ccccc2o1)n1c(=O)c(-c2ccco2)nc2ccccc21` (stereo unspecified), the figure is 2420 nM.
With `O=C(/C=C/c1ccc2c(c1)OCCCO2)c1ccccc1O`, the 50% inhibitory concentration (IC50) was 5650 nM.
As to `Cc1oc2c(c1C(=O)c1ccc(Cl)cc1)C(=O)C(=O)c1ccccc1-2`, the IC50 is 1980 nM.
Then `O=C(NCc1ccccc1)C(c1ccc(-c2ccccc2)cc1)n1c(=O)c(-c2ccco2)nc2ccccc21` (stereo unspecified), with 2700 nM; and `CC1CCN(S(=O)(=O)c2ccc(NC(=O)Cc3ccccc3)cc2)CC1`, with 9470 nM; and `Cc1ccc(NC(=O)CSc2nnc(-c3ccco3)c(-c3ccco3)n2)cc1`, with 1180 nM.
As for `CN1C(=O)/C(=C/C=C/c2ccco2)C(=O)NC1=S`, the figure is 2960 nM; as for `C#CCN(C[C@@H]1[C@@H](OC(=O)NCC2CCCCC2)[C@@H](OC(=O)NCC2CCCCC2)Cn2c(=O)ccc(=O)n21)S(=O)(=O)c1ccc(C)cc1`, 3600 nM; as for `COc1ccc(NC(=O)C(c2ccc(OC)cc2)n2c(=O)c(-c3ccco3)nc3ccccc32)cc1` (stereo unspecified), 6130 nM.
As to `CN1CCC[C@@H]1CCO[C@](C)(c1ccccc1)c1ccc(Cl)cc1`, the IC50 result was “inactive”.
Then `CCOC(=O)c1c(NC(=O)/C=C/C(=O)O)sc(C)c1-c1ccc(C(C)(C)C)cc1`, with 6740 nM.
As for `CCN(CC)CCN(CC(=O)Nc1c(C)cc(C)cc1C)C(=O)c1ccccc1`, the figure is 9740 nM; as for `O=C(NC1CCCCC1)C(c1ccc(C(F)(F)F)cc1)n1c(=O)c(-c2ccco2)nc2ccccc21` (stereo unspecified), 1250 nM; as for `O=C(NC1CCCCC1)C(c1ccc(-c2ccccc2)cc1)n1c(=O)c(-c2ccco2)nc2ccccc21` (stereo unspecified), 1540 nM.
Then `O=C1C(=O)c2c(C(=O)c3ccccc3)coc2-c2ccccc21`, with 2930 nM.
In the case of `CCC(C(=O)OCCN(CC)CC)c1ccccc1` (stereo unspecified), the IC50 was 2550 nM.
Then `CCC(C)NC(=O)Nc1ccc2c(c1)N(C)C(=O)c1ccccc1S2` (stereo unspecified), with 4970 nM.
With `CC(C)c1nnc(NC(=O)c2nc(S(=O)(=O)Cc3ccc(F)cc3)ncc2Cl)s1`, the IC50 is 1940 nM.
Consider `Cc1cccc(C)c1NC(=O)C(c1ccc(C(F)(F)F)cc1)n1c(=O)c(-c2ccco2)nc2ccccc21` (stereo unspecified), for which the IC50 is 2220 nM.
Then `Cc1cccc(C)c1NC(=O)C(c1ccncc1)n1c(=O)c(-c2ccco2)nc2ccccc21` (stereo unspecified), with “inactive”; and `COc1ccc(OCc2cn(CC(=O)c3ccc(O)cc3)nn2)cc1`, with 3070 nM.
Then `Cc1ccc(C(=O)c2c(C)oc3c2C(=O)C(=O)c2ccccc2-3)cc1`, with 3820 nM; and `Cc1cccc(C)c1NC(=O)C(c1ccccc1)n1c(=O)c(-c2ccco2)nc2ccccc21` (stereo unspecified), with 5190 nM; and `O=c1[nH]c(C2CCN(S(=O)(=O)c3ccc(S(=O)(=O)NC4CC4)cc3)CC2)nc2c1nnn2Cc1ccc(F)cc1`, with 5660 nM.
Then `O=C(NCc1ccccc1)C(C1CC1)n1c(=O)c(-c2ccco2)nc2ccccc21` (stereo unspecified), with 7200 nM; and `CSc1nnc(NC(=O)c2nc(S(=O)(=O)Cc3ccc(C)cc3)ncc2Cl)s1`, with 2510 nM.
For `CSc1nnc(NC(=O)c2nc(S(=O)(=O)Cc3cccc(C)c3)ncc2Cl)s1`, the IC50 is 2690 nM.
Regarding `N#Cc1ccc(C(C(=O)NCc2ccccc2)n2c(=O)c(-c3ccco3)nc3ccccc32)cc1` (stereo unspecified), the IC50 is 1560 nM.
As for `CCc1nnc(NC(=O)c2nc(S(=O)(=O)Cc3ccccc3)ncc2Cl)s1`, the figure is 4140 nM; as for `Cc1cccc(C)c1NC(=O)C(c1cccc2ccccc12)n1c(=O)c(-c2ccco2)nc2ccccc21` (stereo unspecified), 1810 nM.
Then `CCC(c1nc2ccccc2[nH]1)n1c(=O)c(-c2ccco2)nc2ccccc21` (stereo unspecified), with 3110 nM.
Then `CC1=CC(C)(C)Nc2ccc(OC(=O)c3cccnc3)cc21`, with 2230 nM; and `Cc1ccc(/C=C/C(=O)c2cc(Br)ccc2OC(=O)c2ccco2)cc1`, with 922 nM.
With `O=C(NC1CCCCC1)C(C1CC1)n1c(=O)c(-c2ccco2)nc2ccccc21` (stereo unspecified), the IC50 is 2380 nM.
Then `Cc1cc(C)c(NC(=O)CN2CCN3CCCC3C2)c(C)c1` (stereo unspecified), with 9270 nM; and `O=C(NC1CCCCC1)C(c1ccccc1)n1c(=O)c(-c2ccco2)nc2ccccc21` (stereo unspecified), with 670 nM; and `CCOC1=CC2=C(C(=O)C(Cl)=CC2=O)[C@@H]2CN(S(=O)(=O)c3ccc(C)cc3)[C@@H](c3ccccc3)[C@H]12`, with 941 nM.
Then `Cc1ccc(C)c(/C=C/C(=O)c2ccccc(=O)c2O)c1`, with 4050 nM.
As for `CCCCCNC(=O)C(c1ccc(C(F)(F)F)cc1)n1c(=O)c(-c2ccco2)nc2ccccc21` (stereo unspecified), the figure is 1820 nM.
For the compound `C#CCOCCOCCOCCNc1nc(N2CCN(C(=O)CCCCCCCCCCNC(=O)[C@@H](CCSC)n3cc(CCO)nn3)CC2)nc(N2CCN(C(=O)CCCCCCCCCCNC(=O)[C@@H]([C@H](C)O)n3cc(C)nn3)CC2)n1`, the IC50 is > 39800 nM (inactive).
In the case of `COc1ccc(NC(=O)C(c2ccccc2)n2c(=O)c(-c3ccco3)nc3ccccc32)cc1` (stereo unspecified), the IC50 is 8790 nM.
As for `COc1ccc(/C=C/C(=O)c2cc(F)ccc2OC(=O)c2ccc(OC)c(OC)c2)cc1OC`, the figure is 2740 nM; as for `O=C(NC1CCCCC1)C(c1cc2ccccc2o1)n1c(=O)c(-c2ccco2)nc2ccccc21` (stereo unspecified), 1360 nM.
Then `CCOC(=O)C1C(OC(=O)c2ccccc2)CC2CCC1N2C` (stereo unspecified), with 9390 nM; and `CN1[C@@H]2CC[C@H]1CC(OC1c3ccccc3CCc3ccccc31)C2` (stereo partly specified), with 2490 nM.
As to `CCN1/C(=C/C=C/c2oc3ccc(-c4ccccc4)cc3[n+]2CC)Oc2ccc(-c3ccccc3)cc21`, the IC50 was 1030 nM.
For the compound `COc1ccc(NC(=O)C(c2cccc3ccccc23)n2c(=O)c(-c3ccco3)nc3ccccc32)cc1` (stereo unspecified), the IC50 entry was “inactive”.
As for `Cc1ccc(S(=O)(=O)N2C[C@@]3(O)Cn4c(=O)ccc(=O)n4C[C@@]3(OC(=O)NCC3CCCCC3)C2)cc1`, the figure is 3990 nM; as for `COc1ccc(C(C(=O)Nc2c(C)cccc2C)n2c(=O)c(-c3ccco3)nc3ccccc32)cc1` (stereo unspecified), 2380 nM; as for `Cc1cc(C)c(C(CC(=O)c2cccs2)C(C#N)C#N)c(C)c1` (stereo unspecified), 8600 nM.
As for `CC1=CC(C)(C)Nc2ccc(OC(=O)C(C)N3C(=O)c4ccccc4C3=O)cc21` (stereo unspecified), the figure is 2640 nM; as for `Cc1cccc(C)c1NC(=O)C(c1ccc(-c2ccccc2)cc1)n1c(=O)c(-c2ccco2)nc2ccccc21` (stereo unspecified), 1330 nM.
As for `O=C(Nc1ccc(Cl)cc1)/C(=C/c1cccc(O)c1)c1nc2ccccc2s1`, the figure is 2100 nM; as for `N#Cc1ncc(Cc2ccccc2)nc1C#N`, 8580 nM.
On to `O=C(NC1CCCCC1)C(c1cccc2ccccc12)n1c(=O)c(-c2ccco2)nc2ccccc21` (stereo unspecified), for which the half-maximal inhibitory concentration (IC50) is 940 nM.
Then `CCOC(=O)/C(=C\c1ccc(Cl)cc1)c1nc2sc(C)c(C)c2c(=O)[nH]1`, with 750 nM; and `CS(=O)(=O)c1ccc(C(=O)NCCN2C(=O)S/C(=C\c3cccnc3)C2=O)cc1[N+](=O)[O-]`, with 3670 nM; and `Cc1cc(C)c(NC(=O)C[N+](C)(C)CC(O)COc2cccc3ccccc23)c(C)c1` (stereo unspecified), with 7490 nM.
As for `Oc1ccc2sc(-c3ccccc3O)c(-c3ccc(OCCN4CCCCC4)cc3)c2c1`, the entry is “inactive”; as for `O=C(Cn1c(=O)n(Cc2ccco2)c(=O)c2c3c(sc21)CCCC3)Nc1ccccc1`, “inactive”.
In the case of `O=C(/C=C/c1ccc(NC(=O)c2ccccc2-c2ccccc2C(=O)O)cc1)c1ccccc1`, the IC50 is 7140 nM.
For the compound `CC(=O)Cc1cc(O)c2ccccc2c1OC(=O)c1ccccc1`, the IC50 was 1960 nM.
As for `CCCCCNC(=O)C(c1ccccc1F)n1c(=O)c(-c2ccco2)nc2ccccc21` (stereo unspecified), the figure is 862 nM.
As for `COc1ccc(/C=C\C(=O)CC(O)(c2ccccc2)C(F)(F)F)cc1` (stereo unspecified), the figure is 2890 nM; as for `CC(=O)Oc1c(Cl)c(N2CCOCC2)c(OC(C)=O)c2ccccc12`, 4280 nM.
For `FC(F)(F)c1cccc(NC(=S)N(CCCN2CCCC2)Cc2cccn2Cc2ccc(Cl)cc2)c1`, the IC50 result is “inactive”.
Consider `Cc1cccc(C)c1NC(=O)C(c1ccc(C#N)cc1)n1c(=O)c(-c2ccco2)nc2ccccc21` (stereo unspecified), for which the IC50 is 2450 nM.
As for `COCCN(CCOC)c1nc(N)c2c(N)nc3c(c2c1C#N)CC(=O)N3Cc1ccc(Cl)cc1`, the entry is “inactive”.
As for `CC1(C)C2CCC(CN=C(N)CSS(=O)(=O)O)C1C2` (stereo unspecified), the figure is 4270 nM.
As for `CC(CCc1ccco1)NC(=O)CCc1nnc2ccc(NCc3ccccc3Cl)nn12` (stereo unspecified), the figure is 8970 nM; as for `CCCCCNC(=O)C(c1cccc2ccccc12)n1c(=O)c(-c2ccco2)nc2ccccc21` (stereo unspecified), 1570 nM.
On to `COc1ccc(C(C(=O)NC2CCCCC2)n2c(=O)c(-c3ccco3)nc3ccccc32)cc1` (stereo unspecified), for which the IC50 is 1140 nM.
